Among the data in ChEMBL document CHEMBL1154486, “Synthesis and evaluation of in vitro anti-tuberculosis activity of N-substituted glycolamides” (2009) are MIC values, retold here.

≈ marks a conversion by molar mass, not a printed value.

This test relates to Mycobacterium tuberculosis. The test can be described thus: Antimycobacterial activity against Mycobacterium tuberculosis H37Rv ATCC 27294 by microplate alamar blue assay. It counts as functional. (Resazurin is reduced to fluorescent resorufin, in cell work by metabolically active cells.)

As usually defined, the MIC is the smallest concentration in the dilution series that meets the test's criterion for growth inhibition. On to `CCC(CO)NC(=O)CO` (centres undefined), for which the MIC worked out at 29.5 µg/mL (≈ 200 µM). Then `O=C(CO)N1CCCCC1`, with 38.8 µg/mL (≈ 271 µM). Then `O=C(CO)N1CCOCC1`, with 13.8 µg/mL (≈ 94.7 µM); and `O=C(CO)NCCc1ccccc1`, with 74 µg/mL (≈ 413 µM). As for `O=C(CO)NCCO`, the minimal inhibitory concentration (MIC) came to 87.5 µg/mL (≈ 735 µM). The compound `O=C(CO)N1CCCC(O)C1` (centres undefined) showed an MIC of 60 µg/mL (≈ 377 µM). Then `O=C(CO)N1CCN(C(=O)CO)CC1`, with 15.8 µg/mL (≈ 77.9 µM).

On to `O=C(CO)N1CCCC1`, for which inhibition of growth (MIC) required 25.5 µg/mL (≈ 197 µM). Then `O=C(CO)N1CCC(O)CC1`, with 33.2 µg/mL (≈ 209 µM); and `CC(CO)(CO)NC(=O)CO`, with 67.5 µg/mL (≈ 414 µM). Then `O=C(CO)N1CCN(CCO)CC1`, with 14.2 µg/mL (≈ 75.7 µM); and `O=C(CO)NN1CCOCC1`, with 57 µg/mL (≈ 356 µM); and `O=C(CO)N(CCO)CCO`, with 12.5 µg/mL (≈ 76.6 µM). `CC[C@@H](CO)NCCN[C@@H](CC)CO` [ETHAMBUTOL] displayed an MIC of 5 µg/mL (≈ 24.5 µM).
